Data from publication PMC12064818, “A general assay platform to study protein pharmacology using ligand-dependent structural dynamics” (Nature Communications, 2025).

Columns and labels:
PKA = details: annotation yes/no for kinase library compound; source not given; cited from earlier work
[1] = biological target: FLuc-C-NLuc (firefly luciferase) (Photinus pyralis, UniProt P08659, form not given/L550V); test: SDR assay, FLuc-C-NLuc; details: - ATP
P. pyralis FLuc = P. pyralis FLuc (Photinus pyralis, UniProt P08659); test: FLuc enzymatic luminescence assay, P. pyralis FLuc; type: biochemical; details: FLuc enzymatic assay, Clade S follow-up; for IC50: read-out: IC50 or SDR50 (mM) FLuc E
Sequence of P. pyralis FLuc (P08659 whole entry): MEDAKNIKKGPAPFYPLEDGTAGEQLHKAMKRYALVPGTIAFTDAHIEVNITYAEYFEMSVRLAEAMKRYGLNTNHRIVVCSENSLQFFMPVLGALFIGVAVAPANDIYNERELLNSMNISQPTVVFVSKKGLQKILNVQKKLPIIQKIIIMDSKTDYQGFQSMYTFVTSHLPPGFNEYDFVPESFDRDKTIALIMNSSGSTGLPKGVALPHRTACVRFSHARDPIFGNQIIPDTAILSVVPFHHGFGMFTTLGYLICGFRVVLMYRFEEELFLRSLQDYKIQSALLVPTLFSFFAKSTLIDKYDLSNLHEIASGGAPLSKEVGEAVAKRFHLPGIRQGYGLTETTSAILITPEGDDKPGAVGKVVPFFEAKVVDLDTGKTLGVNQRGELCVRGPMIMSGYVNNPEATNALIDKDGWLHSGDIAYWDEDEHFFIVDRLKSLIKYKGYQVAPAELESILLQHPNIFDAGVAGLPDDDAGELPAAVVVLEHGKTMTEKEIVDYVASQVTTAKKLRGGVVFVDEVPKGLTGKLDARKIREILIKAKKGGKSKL
How it was run: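 Runs with and without 10 µM ATP: compounds were pre-incubated with FLuc (1–10 nM, PBS pH 7.4) at ambient temperature, light-protected, for 30–60 min. Luminescence was imaged 5 min after adding 10 µM D-luciferin (final). Inhibition was scaled between DMSO neutral and no-enzyme controls.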

FLuc-C-HiBiT = biological target: T1, FLuc-C-HiBiT (Photinus pyralis, UniProt P08659); test: biochemical; details: enzyme activity, 10 uM ATP; read-out: IC50 or SDR50 (mM) / FLuc E
T1 construct: firefly luciferase with C-terminal HiBiT tag, E. coli expressed
T1 sequence (P08659 whole entry, looked up): as the sequence (P08659 whole entry) above

[2] = biological target: FLuc-C-HiBiT (firefly luciferase) (Photinus pyralis, UniProt P08659, form not given/L550V); test: SDR assay, FLuc-C-HiBiT; details: for % Activity (max response, + ATP) / % Activity (max response, - ATP): SDR max. response, clade S; for % Activity (max response, - ATP) / pSDR50 (clade S): - ATP; for pSDR50 (clade S): dihydro-imidazo-oxazine (clade S)
Sequence of FLuc-C-HiBiT (firefly luciferase) (P08659 2-550 L550V, form open): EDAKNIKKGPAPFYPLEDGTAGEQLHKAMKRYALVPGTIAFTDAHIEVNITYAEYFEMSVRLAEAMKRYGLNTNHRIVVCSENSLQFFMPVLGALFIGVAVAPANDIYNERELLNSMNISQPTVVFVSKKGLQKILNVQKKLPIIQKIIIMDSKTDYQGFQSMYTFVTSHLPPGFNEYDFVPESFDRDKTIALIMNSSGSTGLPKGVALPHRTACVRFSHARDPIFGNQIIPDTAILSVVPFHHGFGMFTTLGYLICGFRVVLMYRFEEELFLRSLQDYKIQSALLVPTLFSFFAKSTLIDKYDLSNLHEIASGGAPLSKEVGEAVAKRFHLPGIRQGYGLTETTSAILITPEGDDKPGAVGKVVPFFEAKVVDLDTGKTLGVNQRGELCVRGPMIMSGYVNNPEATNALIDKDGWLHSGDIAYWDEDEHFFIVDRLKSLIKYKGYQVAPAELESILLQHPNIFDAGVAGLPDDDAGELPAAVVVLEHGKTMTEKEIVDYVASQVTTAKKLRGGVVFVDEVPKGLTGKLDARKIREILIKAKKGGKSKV

NLuc = biological target: T2, NLuc (Oplophorus gracilirostris, UniProt Q9GV45, A31E/A60N/A81I/F95D/I117V/K70R/L54V/L99Q/M102K/N193R/P142E/Q151K/Q38R/Q45L/V71I/Y165I); type: biochemical; details: - ATP
T2 construct: His tag (inferred from IMAC purification); made in house; host or cells: E. coli
T2 sequence (Q9GV45 other isoform, or with tags, fused parts or gaps with the stated changes): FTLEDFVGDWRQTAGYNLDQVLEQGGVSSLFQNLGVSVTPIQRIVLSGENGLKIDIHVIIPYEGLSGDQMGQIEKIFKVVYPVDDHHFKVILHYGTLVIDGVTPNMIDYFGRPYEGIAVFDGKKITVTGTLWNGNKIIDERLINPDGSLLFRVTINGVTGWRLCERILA
How it was run: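 Test compounds added to 1 nM NLuc in PBS with 0.05% IGEPAL, ± ATP. Nano-Glo reagent added and incubated 10 min before luminescence read.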

Sequence of FLuc-C-NLuc (firefly luciferase) (P08659 2-550 L550V, form open): as the sequence (P08659 2-550 L550V, form open) above

CCN1CCN(Cc2ccc(NC(=O)Nc3ccc(Oc4cc(NC)ncn4)cc3)cc2C(F)(F)F)CC1 [AST-487]
Annotated PKA activity (PKA): yes

C=CC(=O)Nc1cc2c(Nc3ccc(F)c(Cl)c3)ncnc2cc1OCCCN1CCOCC1 [Canertinib]
Annotated PKA activity (PKA): no

COc1cc2c(Oc3ccc(NC(=O)C4(C(=O)Nc5ccc(F)cc5)CC4)cc3F)ccnc2cc1OCCCN1CCOCC1 [Foretinib]
Annotated PKA activity (PKA): no

COc1cc2ncnc(Nc3ccc(F)c(Cl)c3)c2cc1OCCCN1CCOCC1 [Gefitinib]
Annotated PKA activity (PKA): no

Cc1ccc(NC(=O)c2ccc(CN3CCN(C)CC3)cc2)cc1Nc1nc(-c2cccnc2)cs1 [Masitinib]
Annotated PKA activity (PKA): no

Cc1cc(C)cc(NC(=O)C2CCN(C(=O)c3ncn4c3COC(c3ccccc3)C4)CC2)c1 (stereo not drawn) [NCGC00449905-01]
Efficacy (%) FLuc-C-NLuc SDR (-ATP) [1]: 0.00%
Efficacy (%) FLuc E (P. pyralis FLuc): -86.91%
pIC50 or pSDR50 FLuc E (P. pyralis FLuc): 5.46
IC50 (P. pyralis FLuc): 0.0035 mM
IC50 (FLuc-C-HiBiT): 0.00313 mM
% Activity (max response, + ATP) [2]: 375.38%
% Activity (max response, - ATP) [2]: 0.00%
Efficacy (%) NLuc (- ATP) (NLuc): 0.00%

CC(C)c1cccc(NC(=O)C2CCN(C(=O)c3ncn4c3COC(c3ccccc3)C4)CC2)c1 (stereo not drawn) [NCGC00449908-01]
Efficacy (%) FLuc-C-NLuc SDR (-ATP) [1]: 0.00%
Efficacy (%) FLuc E (P. pyralis FLuc): -95.10%
pIC50 or pSDR50 FLuc E (P. pyralis FLuc): 5.26
IC50 (P. pyralis FLuc): 0.00555 mM
IC50 (FLuc-C-HiBiT): 0.00785 mM
% Activity (max response, + ATP) [2]: 304.79%
% Activity (max response, - ATP) [2]: 0.00%
Efficacy (%) NLuc (- ATP) (NLuc): 0.00%

CC(C)c1ccc(NC(=O)C2CCN(C(=O)c3ncn4c3COC(c3ccccc3)C4)CC2)cc1 (stereo not drawn) [NCGC00449909-01]
Efficacy (%) FLuc-C-NLuc SDR (-ATP) [1]: 0.00%
Efficacy (%) FLuc E (P. pyralis FLuc): -93.68%
pIC50 or pSDR50 FLuc E (P. pyralis FLuc): 5.51
IC50 (P. pyralis FLuc): 0.00312 mM
IC50 (FLuc-C-HiBiT): 0.00351 mM
% Activity (max response, + ATP) [2]: 370.54%
% Activity (max response, - ATP) [2]: 0.00%
Efficacy (%) NLuc (- ATP) (NLuc): 0.00%

COc1ccc(NC(=O)C2CCN(C(=O)c3ncn4c3COC(c3ccccc3)C4)CC2)cc1 (stereo not drawn) [NCGC00449910-01]
Efficacy (%) FLuc-C-NLuc SDR (-ATP) [1]: 0.00%
Efficacy (%) FLuc E (P. pyralis FLuc): -79.86%
pIC50 or pSDR50 FLuc E (P. pyralis FLuc): 5.06
IC50 (P. pyralis FLuc): 0.0088 mM
IC50 (FLuc-C-HiBiT): 0.00785 mM
% Activity (max response, + ATP) [2]: 319.33%
% Activity (max response, - ATP) [2]: 0.00%
Efficacy (%) NLuc (- ATP) (NLuc): 0.00%

COc1ccc(NC(=O)C2CCN(C(=O)c3ncn4c3COC(c3ccccc3)C4)CC2)cc1OC (stereo not drawn) [NCGC00449911-01]
Efficacy (%) FLuc-C-NLuc SDR (-ATP) [1]: 0.00%
Efficacy (%) FLuc E (P. pyralis FLuc): -91.83%
pIC50 or pSDR50 FLuc E (P. pyralis FLuc): 5.51
IC50 (P. pyralis FLuc): 0.00312 mM
IC50 (FLuc-C-HiBiT): 0.00351 mM
% Activity (max response, + ATP) [2]: 240.56%
% Activity (max response, - ATP) [2]: 15.50%
Efficacy (%) NLuc (- ATP) (NLuc): 11.18%

CCOc1ccc(NC(=O)C2CCN(C(=O)c3ncn4c3COC(c3ccccc3)C4)CC2)cc1 (stereo not drawn) [NCGC00449913-01]
Efficacy (%) FLuc-C-NLuc SDR (-ATP) [1]: 0.00%
Efficacy (%) FLuc E (P. pyralis FLuc): -92.73%
pIC50 or pSDR50 FLuc E (P. pyralis FLuc): 5.36
IC50 (P. pyralis FLuc): 0.00441 mM
IC50 (FLuc-C-HiBiT): 0.007 mM
% Activity (max response, + ATP) [2]: 212.53%
% Activity (max response, - ATP) [2]: 0.00%
Efficacy (%) NLuc (- ATP) (NLuc): -11.50%

O=C(Nc1cccc(F)c1)C1CCN(C(=O)c2ncn3c2COC(c2ccccc2)C3)CC1 (stereo not drawn) [NCGC00449914-01]
Efficacy (%) FLuc-C-NLuc SDR (-ATP) [1]: 0.00%
Efficacy (%) FLuc E (P. pyralis FLuc): -105.74%
pIC50 or pSDR50 FLuc E (P. pyralis FLuc): 6.21
IC50 (P. pyralis FLuc): 0.00062 mM
IC50 (FLuc-C-HiBiT): 0.000881 mM
% Activity (max response, + ATP) [2]: 387.59%
% Activity (max response, - ATP) [2]: 0.00%
Efficacy (%) NLuc (- ATP) (NLuc): 0.00%

O=C(Nc1ccc(F)cc1)C1CCN(C(=O)c2ncn3c2COC(c2ccccc2)C3)CC1 (stereo not drawn) [NCGC00449915-01]
Efficacy (%) FLuc-C-NLuc SDR (-ATP) [1]: 0.00%
Efficacy (%) FLuc E (P. pyralis FLuc): -91.87%
pIC50 or pSDR50 FLuc E (P. pyralis FLuc): 5.91
IC50 (P. pyralis FLuc): 0.00124 mM
IC50 (FLuc-C-HiBiT): 0.00176 mM
% Activity (max response, + ATP) [2]: 357.60%
% Activity (max response, - ATP) [2]: 0.00%
Efficacy (%) NLuc (- ATP) (NLuc): 0.00%

O=C(Nc1ccc(F)c(F)c1)C1CCN(C(=O)c2ncn3c2COC(c2ccccc2)C3)CC1 (stereo not drawn) [NCGC00449916-01]
Efficacy (%) FLuc-C-NLuc SDR (-ATP) [1]: 0.00%
Efficacy (%) FLuc E (P. pyralis FLuc): -98.00%
pIC50 or pSDR50 FLuc E (P. pyralis FLuc): 6.11
IC50 (P. pyralis FLuc): 0.00078 mM
IC50 (FLuc-C-HiBiT): 0.000989 mM
% Activity (max response, + ATP) [2]: 236.10%
% Activity (max response, - ATP) [2]: 8.48%
Efficacy (%) NLuc (- ATP) (NLuc): 0.00%

O=C(Nc1ccc(Cl)cc1)C1CCN(C(=O)c2ncn3c2COC(c2ccccc2)C3)CC1 (stereo not drawn) [NCGC00449917-01]
Efficacy (%) FLuc-C-NLuc SDR (-ATP) [1]: 0.00%
Efficacy (%) FLuc E (P. pyralis FLuc): -91.81%
pIC50 or pSDR50 FLuc E (P. pyralis FLuc): 5.81
IC50 (P. pyralis FLuc): 0.00157 mM
IC50 (FLuc-C-HiBiT): 0.00176 mM
% Activity (max response, + ATP) [2]: 361.85%
% Activity (max response, - ATP) [2]: 0.00%
Efficacy (%) NLuc (- ATP) (NLuc): 0.00%

O=C(Nc1ccc(F)c(Cl)c1)C1CCN(C(=O)c2ncn3c2COC(c2ccccc2)C3)CC1 (stereo not drawn) [NCGC00449918-01]
Efficacy (%) FLuc-C-NLuc SDR (-ATP) [1]: 0.00%
Efficacy (%) FLuc E (P. pyralis FLuc): -99.81%
pIC50 or pSDR50 FLuc E (P. pyralis FLuc): 6.16
IC50 (P. pyralis FLuc): 0.0007 mM
IC50 (FLuc-C-HiBiT): 0.000989 mM
% Activity (max response, + ATP) [2]: 238.83%
% Activity (max response, - ATP) [2]: 49.33%
pSDR50 (clade S) [2]: 4.95
Efficacy (%) NLuc (- ATP) (NLuc): 0.00%

COc1ccc(NC(=O)C2CCN(C(=O)c3ncn4c3COC(c3ccccc3)C4)CC2)cc1Cl (stereo not drawn) [NCGC00449919-01]
Efficacy (%) FLuc-C-NLuc SDR (-ATP) [1]: -15.13%
Efficacy (%) FLuc E (P. pyralis FLuc): -103.24%
pIC50 or pSDR50 FLuc E (P. pyralis FLuc): 6.36
IC50 (P. pyralis FLuc): 0.00044 mM
IC50 (FLuc-C-HiBiT): 0.000881 mM
% Activity (max response, + ATP) [2]: 241.73%
% Activity (max response, - ATP) [2]: 38.71%
pSDR50 (clade S) [2]: 4.85
Efficacy (%) NLuc (- ATP) (NLuc): -11.50%

COc1ccc(C)cc1NC(=O)C1CCN(C(=O)c2ncn3c2COC(c2ccc(F)cc2)C3)CC1 (stereo not drawn) [NCGC00449936-01]
Efficacy (%) FLuc-C-NLuc SDR (-ATP) [1]: 0.00%
Efficacy (%) FLuc E (P. pyralis FLuc): -99.49%
pIC50 or pSDR50 FLuc E (P. pyralis FLuc): 5.06
IC50 (P. pyralis FLuc): 0.0088 mM
IC50 (FLuc-C-HiBiT): 0.00989 mM
% Activity (max response, + ATP) [2]: 128.83%
% Activity (max response, - ATP) [2]: -5.78%
Efficacy (%) NLuc (- ATP) (NLuc): 0.00%
